# Reference: US20090137572A1, “2-substituted-4-heteroaryl-pyrimidines useful for the treatment of proliferative disorders” (priority 2004, published 2009)
# Legend:
# Type in all cases: biochemical
# Aurora A kinase = molecular target: T1, Aurora A kinase (Homo sapiens, UniProt O14965); test: Aurora-A (human) kinase assay (Kemptide substrate); details: pIC50 is -log(IC50, M); 15 μM ATP; read-out: Kinase Inhibition pIC50 Aurora A kinase (converted)
# T1 construct: purchased
# T1 sequence (O14965 1-403): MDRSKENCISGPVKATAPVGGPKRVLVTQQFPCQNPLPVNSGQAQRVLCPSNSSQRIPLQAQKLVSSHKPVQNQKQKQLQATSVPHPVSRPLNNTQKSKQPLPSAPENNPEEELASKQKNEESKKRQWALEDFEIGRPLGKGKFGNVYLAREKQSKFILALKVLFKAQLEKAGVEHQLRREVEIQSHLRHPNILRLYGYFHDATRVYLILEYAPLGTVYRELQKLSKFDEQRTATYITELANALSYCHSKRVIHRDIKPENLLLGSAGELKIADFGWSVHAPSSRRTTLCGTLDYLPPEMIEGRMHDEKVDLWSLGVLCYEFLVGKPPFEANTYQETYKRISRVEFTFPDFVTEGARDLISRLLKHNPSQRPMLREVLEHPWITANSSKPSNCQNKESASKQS
# How it was run: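 Kemptide (LRRASLG, 200 μM) phosphorylation by 5-10 ng commercial aurora-A measured as [γ-33P] incorporation at 15 μM ATP with 10 mM Mg acetate, pH 7.0 MOPS buffer. Reaction ran 40 min at room temperature; acid-stopped, captured on P81 filters, scintillation read.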
# GSK3b = GSK3b (Homo sapiens, UniProt P49841); test: Kinase assay (radioactive phosphate incorporation), GSK-3b; details: read-out: Kinase Inhibition pIC50 GSK-3b (converted)
# How it was run: (§1)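 Inhibition measured as 32P transfer from ATP (100 μM, 15 mM MgCl2) onto peptide substrates at 30° C. Each assay used 2-4 μg active recombinant enzyme in pH 7.4 buffer. Reactions stopped on ice, filtered, acid-washed and counted; compounds diluted into 10% DMSO in assay buffer.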
# CDK2-cyclin A = CDK2-cyclin A (Homo sapiens, UniProt P24941); test: Kinase assay (radioactive phosphate incorporation), CDK2-cyclin A; details: read-out: Kinase Inhibition pIC50 CDK2-cyclin A (converted)
# Method: Kinase assays. The compounds of the invention above were investigated for their ability to inhibit the enzymatic activity of various protein kinases (Table 2). This was achieved by measurement of incorporation of radioactive phosphate from ATP into appropriate polypeptide substrates. Recombinant protein kinases and kinase complexes were produced or obtained commercially. Assays were performed using 96-well plates and appropriate assay buffers (typically 25 mM β-glycerophosphate, 20 mM MOPS, 5 mM EGTA, 1 mM DTT, 1 mM […], pH 7.4), into which were added 2-4 μg of active enzyme with appropriate substrates. The reactions were initiated by addition of Mg/ATP mix (15 mM MgCl2+100 μM ATP with 30-50 kBq per well of [γ-^32P]-ATP) and mixtures incubated as required at 30° C. Reactions were stopped on ice, followed by filtration through p81 filterplates or GF/C filterplates (Whatman Polyfiltronics, Kent, UK). After washing 3 times with 75 mM aq orthophosphoric acid, plates were dried, scintillant added and incorporated radioactivity measured in a scintillation counter (TopCount, Packard Instruments, Pangbourne, Berks, UK). Compounds for kinase assay were made up as 10 mM stocks in DMSO and diluted into 10% DMSO in assay buffer.
# CDK4-cyclin D1 = CDK4-cyclin D1 (Homo sapiens, UniProt P11802); test: Kinase assay (radioactive phosphate incorporation), CDK4-cyclin D1; details: read-out: Kinase Inhibition pIC50 CDK4-cyclin D1 (converted)
# How it was run: as §1
# CDK1-cyclin B = CDK1-cyclin B (Homo sapiens, UniProt P06493); test: Kinase assay (radioactive phosphate incorporation), CDK1-cyclin B; details: read-out: Kinase Inhibition pIC50 CDK1-cyclin B (converted)
# How it was run: as §1
# CDK7/cyclin H = CDK7/cyclin H (Homo sapiens, UniProt P50613); test: CDK 7 assay (CTD peptide substrate); details: read-out: Kinase Inhibition pIC50 CDK7-cyclin H (converted)
# How it was run: (§2)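 32P transfer from 100 μM ATP (trace [γ-32P]ATP) to a biotinyl CTD (YSPTSPS)4 peptide was measured after 45 min at 30 °C in pH 7.2 MOPS buffer, 15 mM MgCl2, using recombinant human CDK7/cyclin H or CDK9/cyclin T1. Signal read by filter binding and scintillation counting.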
# CDK2-cycline E = CDK2-cycline E (Homo sapiens, UniProt P24941); test: Kinase assay (radioactive phosphate incorporation), CDK2-cyclin E; details: read-out: Kinase Inhibition pIC50 CDK2-cycline E (converted)
# How it was run: as §1
# CDK9/cyclin T1 = CDK9/cyclin T1 (Homo sapiens, UniProt P50750); test: CDK 9 assay (CTD peptide substrate); details: read-out: Kinase Inhibition pIC50 CDK9-cyclin T1 (converted)
# How it was run: as §2
# [1] = molecular target: T2, Flt3 (FMS-like tyrosine kinase-3) (Homo sapiens, UniProt P36888); test: Kinase assay (radioactive phosphate incorporation), Flt3; details: pIC50 is -log(IC50, M), read-out: Kinase Inhibition pIC50 Flt3 (converted)
# T2 sequence (P36888 27-993): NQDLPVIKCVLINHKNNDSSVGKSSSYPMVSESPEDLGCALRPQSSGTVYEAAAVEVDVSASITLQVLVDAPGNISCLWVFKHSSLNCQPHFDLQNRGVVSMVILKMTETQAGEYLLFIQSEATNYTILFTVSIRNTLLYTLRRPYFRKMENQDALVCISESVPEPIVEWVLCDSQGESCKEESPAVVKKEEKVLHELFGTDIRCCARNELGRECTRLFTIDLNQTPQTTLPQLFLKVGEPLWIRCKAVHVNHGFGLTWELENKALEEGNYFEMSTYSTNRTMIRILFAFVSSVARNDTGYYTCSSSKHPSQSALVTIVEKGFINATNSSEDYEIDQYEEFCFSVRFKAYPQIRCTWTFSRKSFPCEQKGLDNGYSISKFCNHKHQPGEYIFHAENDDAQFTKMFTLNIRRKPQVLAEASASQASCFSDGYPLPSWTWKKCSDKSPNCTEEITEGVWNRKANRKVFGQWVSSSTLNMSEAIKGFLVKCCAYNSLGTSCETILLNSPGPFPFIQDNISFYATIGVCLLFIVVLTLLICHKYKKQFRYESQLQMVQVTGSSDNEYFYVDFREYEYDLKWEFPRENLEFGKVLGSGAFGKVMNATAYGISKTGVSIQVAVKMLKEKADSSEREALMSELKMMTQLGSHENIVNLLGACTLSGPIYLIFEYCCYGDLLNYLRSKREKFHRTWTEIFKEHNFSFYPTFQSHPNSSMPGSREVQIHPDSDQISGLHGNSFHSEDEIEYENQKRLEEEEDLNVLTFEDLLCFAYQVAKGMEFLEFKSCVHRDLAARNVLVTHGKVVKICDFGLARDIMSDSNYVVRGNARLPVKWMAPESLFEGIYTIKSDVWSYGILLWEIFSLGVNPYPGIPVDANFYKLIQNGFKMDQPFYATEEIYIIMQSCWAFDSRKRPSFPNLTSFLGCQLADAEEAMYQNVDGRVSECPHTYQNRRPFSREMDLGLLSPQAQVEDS
# How it was run: as §1
# Chain of CDK4-cyclin D1 (P11802 whole entry): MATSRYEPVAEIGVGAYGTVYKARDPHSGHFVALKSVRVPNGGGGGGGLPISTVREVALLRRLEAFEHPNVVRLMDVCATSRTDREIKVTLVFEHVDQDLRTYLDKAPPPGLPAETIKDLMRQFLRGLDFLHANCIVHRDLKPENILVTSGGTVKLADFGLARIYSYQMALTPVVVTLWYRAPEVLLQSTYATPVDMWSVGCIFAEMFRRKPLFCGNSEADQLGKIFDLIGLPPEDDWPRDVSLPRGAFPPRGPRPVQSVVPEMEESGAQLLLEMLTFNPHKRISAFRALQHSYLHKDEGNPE
# Chain of CDK4-cyclin D1 (P24385 whole entry partner): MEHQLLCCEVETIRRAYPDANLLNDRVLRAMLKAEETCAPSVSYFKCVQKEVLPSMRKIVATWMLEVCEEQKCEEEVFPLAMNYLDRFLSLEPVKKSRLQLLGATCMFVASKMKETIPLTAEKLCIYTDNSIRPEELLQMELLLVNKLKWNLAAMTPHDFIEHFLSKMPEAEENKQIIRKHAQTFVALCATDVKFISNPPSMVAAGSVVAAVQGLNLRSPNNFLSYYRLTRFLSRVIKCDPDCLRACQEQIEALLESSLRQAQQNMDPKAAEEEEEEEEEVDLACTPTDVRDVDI
# Chain of GSK3b (P49841 whole entry, species assumed): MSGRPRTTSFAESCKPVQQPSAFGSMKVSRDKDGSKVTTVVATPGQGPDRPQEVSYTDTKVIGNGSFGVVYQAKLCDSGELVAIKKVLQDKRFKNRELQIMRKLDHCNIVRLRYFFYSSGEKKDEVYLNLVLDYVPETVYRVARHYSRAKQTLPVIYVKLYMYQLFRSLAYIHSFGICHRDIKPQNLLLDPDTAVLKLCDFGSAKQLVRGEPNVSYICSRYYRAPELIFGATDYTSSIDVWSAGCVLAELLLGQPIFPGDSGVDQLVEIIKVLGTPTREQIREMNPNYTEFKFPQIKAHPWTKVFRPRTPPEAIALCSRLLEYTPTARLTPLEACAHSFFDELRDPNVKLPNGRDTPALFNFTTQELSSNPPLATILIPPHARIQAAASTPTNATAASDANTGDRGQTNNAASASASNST
# Chain of CDK9/cyclin T1 (P50750 whole entry): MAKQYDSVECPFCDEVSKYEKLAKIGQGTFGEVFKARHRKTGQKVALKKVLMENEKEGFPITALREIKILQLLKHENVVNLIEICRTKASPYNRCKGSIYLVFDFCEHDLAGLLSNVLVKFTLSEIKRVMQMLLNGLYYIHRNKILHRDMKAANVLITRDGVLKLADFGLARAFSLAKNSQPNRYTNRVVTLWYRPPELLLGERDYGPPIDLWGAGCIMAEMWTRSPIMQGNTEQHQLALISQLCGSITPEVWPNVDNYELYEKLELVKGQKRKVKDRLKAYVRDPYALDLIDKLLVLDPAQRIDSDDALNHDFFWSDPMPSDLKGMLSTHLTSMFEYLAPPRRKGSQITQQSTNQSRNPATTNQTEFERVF
# Chain of CDK9/cyclin T1 (O60563 whole entry partner): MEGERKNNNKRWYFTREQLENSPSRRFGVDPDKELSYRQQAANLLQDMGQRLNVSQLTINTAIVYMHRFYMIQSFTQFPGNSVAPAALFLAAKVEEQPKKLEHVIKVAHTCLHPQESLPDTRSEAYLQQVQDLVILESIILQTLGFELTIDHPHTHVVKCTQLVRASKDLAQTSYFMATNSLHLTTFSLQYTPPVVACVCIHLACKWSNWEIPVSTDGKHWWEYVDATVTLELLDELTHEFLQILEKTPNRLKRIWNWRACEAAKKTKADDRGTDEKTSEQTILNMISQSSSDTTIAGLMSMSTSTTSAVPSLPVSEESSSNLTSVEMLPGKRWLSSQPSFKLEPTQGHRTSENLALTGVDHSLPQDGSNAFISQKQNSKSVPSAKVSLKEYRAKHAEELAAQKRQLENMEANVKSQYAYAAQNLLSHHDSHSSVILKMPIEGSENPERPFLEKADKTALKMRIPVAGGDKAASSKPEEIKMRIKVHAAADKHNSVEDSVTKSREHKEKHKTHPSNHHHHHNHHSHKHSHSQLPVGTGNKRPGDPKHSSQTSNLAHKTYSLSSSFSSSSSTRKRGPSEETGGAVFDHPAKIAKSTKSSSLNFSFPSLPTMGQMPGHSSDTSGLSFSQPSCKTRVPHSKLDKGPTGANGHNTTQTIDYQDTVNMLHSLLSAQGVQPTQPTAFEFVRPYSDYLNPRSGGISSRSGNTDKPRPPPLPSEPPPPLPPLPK
# Chain of CDK1-cyclin B (P06493 whole entry): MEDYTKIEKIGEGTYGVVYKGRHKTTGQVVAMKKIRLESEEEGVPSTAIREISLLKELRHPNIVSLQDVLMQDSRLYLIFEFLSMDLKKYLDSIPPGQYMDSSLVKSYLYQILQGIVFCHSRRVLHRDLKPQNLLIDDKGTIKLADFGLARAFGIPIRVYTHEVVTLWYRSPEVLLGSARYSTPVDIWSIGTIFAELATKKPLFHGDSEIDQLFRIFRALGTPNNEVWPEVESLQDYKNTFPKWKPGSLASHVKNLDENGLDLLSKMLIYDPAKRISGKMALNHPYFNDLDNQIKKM
# Chain of CDK1-cyclin B (P14635 whole entry partner): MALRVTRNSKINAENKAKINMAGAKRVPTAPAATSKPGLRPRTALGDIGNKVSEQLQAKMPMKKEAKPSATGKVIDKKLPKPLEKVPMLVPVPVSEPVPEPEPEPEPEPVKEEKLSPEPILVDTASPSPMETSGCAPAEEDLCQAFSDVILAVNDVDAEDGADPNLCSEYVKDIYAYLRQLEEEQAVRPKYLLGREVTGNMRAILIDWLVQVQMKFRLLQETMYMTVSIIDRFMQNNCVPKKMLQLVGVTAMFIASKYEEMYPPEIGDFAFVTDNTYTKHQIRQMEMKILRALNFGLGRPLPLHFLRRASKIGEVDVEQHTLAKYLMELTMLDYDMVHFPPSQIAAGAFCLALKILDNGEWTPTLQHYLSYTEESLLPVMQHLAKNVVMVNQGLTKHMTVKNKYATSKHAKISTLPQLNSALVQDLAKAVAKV
# Chain of CDK7/cyclin H (P50613 whole entry): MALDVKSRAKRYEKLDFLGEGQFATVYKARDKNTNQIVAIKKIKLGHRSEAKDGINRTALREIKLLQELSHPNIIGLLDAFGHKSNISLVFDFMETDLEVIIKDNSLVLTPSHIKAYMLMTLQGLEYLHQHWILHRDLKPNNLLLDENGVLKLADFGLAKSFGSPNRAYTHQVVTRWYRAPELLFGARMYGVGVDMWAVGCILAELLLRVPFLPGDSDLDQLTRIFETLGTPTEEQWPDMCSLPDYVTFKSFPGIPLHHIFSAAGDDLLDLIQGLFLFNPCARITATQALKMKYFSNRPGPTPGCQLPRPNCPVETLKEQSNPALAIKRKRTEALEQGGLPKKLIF
# Chain of CDK7/cyclin H (P51946 whole entry partner): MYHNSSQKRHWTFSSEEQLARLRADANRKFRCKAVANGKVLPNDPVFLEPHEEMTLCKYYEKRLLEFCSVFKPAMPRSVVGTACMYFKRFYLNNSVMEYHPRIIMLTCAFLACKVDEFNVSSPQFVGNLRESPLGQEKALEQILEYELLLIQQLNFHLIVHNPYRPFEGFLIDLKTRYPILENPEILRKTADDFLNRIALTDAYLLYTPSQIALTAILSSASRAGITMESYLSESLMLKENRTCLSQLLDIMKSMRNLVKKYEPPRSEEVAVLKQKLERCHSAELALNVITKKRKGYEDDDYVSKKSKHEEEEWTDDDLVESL
Structure (SMILES),IC50 (Aurora A kinase),IC50 (GSK3b),IC50 (CDK2-cyclin A),IC50 (CDK4-cyclin D1),IC50 (CDK1-cyclin B),IC50 (CDK7/cyclin H),IC50 (CDK2-cycline E),IC50 (CDK9/cyclin T1),IC50 [1]
"Cc1nc(C)c(-c2ccnc(Nc3cccc(S(C)(=O)=O)c3)n2)s1 [Compound 4, [4-(2,4-Dimethyl-thiazol-5-yl)-pyrimidin-2-yl]-(3-methanesulfonyl-phenyl)-amine]",251 nM,398 nM,1000 nM,1260 nM,501 nM,1000 nM,316 nM,251 nM,
"Cc1nc(C)c(-c2ccnc(Nc3cccc(CNC(=O)c4ccccc4)c3)n2)s1 [Compound 9, N-{3-[4-(2,4-Dimethyl-thiazol-5-yl)-pyrimidin-2-ylamino]-benzyl}-benzamide]",158 nM,2000 nM,1000 nM,251 nM,631 nM,5010 nM,158 nM,501 nM,
"Cc1nc(C)c(-c2ccnc(Nc3cccc(CNS(=O)(=O)C(F)(F)F)c3)n2)s1 [Compound 11, N-{3-[4-(2,4-Dimethyl-thiazol-5-yl)-pyrimidin-2-ylamino]-benzyl}-C,C,C-trifluoro-methanesulfonamide]",200 nM,1580 nM,1580 nM,1260 nM,1580 nM,631 nM,158 nM,1260 nM,
"CNc1nc(C)c(-c2ccnc(Nc3ccc(CNC(C)=O)cc3)n2)s1 [Compound 14, N-{4-[4-(4-Methyl-2-methylamino-thiazol-5-yl)-pyrimidin-2-ylamino]-benzyl}-acetamide]",,631 nM,631 nM,126 nM,398 nM,794 nM,39.8 nM,79.4 nM,79.4 nM
"CNS(=O)(=O)c1cccc(Nc2nccc(-c3sc(C)nc3C)n2)c1 [Compound 33, 3-[4-(2,4-Dimethyl-thiazol-5-yl)-pyrimidin-2-ylamino]-N-methyl-benzenesulfonamide]",1260 nM,200 nM,200 nM,200 nM,501 nM,126 nM,50.1 nM,10 nM,
"CCNc1nc(C)c(-c2ccnc(Nc3ccc(S(=O)(=O)NCCOC)cc3)n2)s1 [Compound 39, 4-[4-(2-Ethylamino-4-methyl-thiazol-5-yl)-pyrimidin-2-ylamino]-N-(2-methoxy-ethyl)-benzenesulfonamide]",126 nM,5010 nM,12.6 nM,501 nM,50.1 nM,631 nM,15.8 nM,200 nM,
"CNc1nc(C)c(-c2ccnc(Nc3cccc(S(=O)(=O)NC(C)=O)c3)n2)s1 [Compound 63, N-Acetyl-3-[4-(4-methyl-2-methylamino-thiazol-5-yl)-pyrimidin-2-ylamino]-benzenesulfonamide]",1580 nM,1580 nM,3160 nM,501 nM,6310 nM,2510 nM,631 nM,398 nM,
"CC(=O)NS(=O)(=O)c1cccc(Nc2nccc(-c3sc(N)nc3C)n2)c1 [Compound 64, N-Acetyl-3-[4-(2-amino-4-methyl-thiazol-5-yl)-pyrimidin-2-ylamino]-benzenesulfonamide]",200 nM,1580 nM,2510 nM,398 nM,6310 nM,1580 nM,398 nM,251 nM,
"CCNc1nc(C)c(-c2ccnc(Nc3ccc(S(=O)(=O)NCCO)cc3)n2)s1 [Compound 65, 4-[4-(2-Ethylamino-4-methyl-thiazol-5-yl)-pyrimidin-2-ylamino]-N-(2-hydroxy-ethyl)-benzenesulfonamide]",251 nM,316 nM,20 nM,12.6 nM,50.1 nM,200 nM,15.8 nM,,200 nM
"CNc1nc(C)c(-c2ccnc(Nc3ccc(S(=O)(=O)NCCO)cc3)n2)s1 [Compound 67, N-(2-Hydroxy-ethyl)-4-[4-(4-methyl-2-methylamino-thiazol-5-yl)-pyrimidin-2-ylamino]-benzenesulfonamide]",316 nM,1260 nM,15.8 nM,501 nM,50.1 nM,3980 nM,6.31 nM,,316 nM
"Cc1nc(C)c(-c2ccnc(Nc3ccc(S(=O)(=O)NCCO)cc3)n2)s1 [Compound 69, 4-[4-(2,4-Dimethyl-thiazol-5-yl)-pyrimidin-2-ylamino]-N-(2-hydroxy-ethyl)-benzenesulfonamide]",79.4 nM,1580 nM,20 nM,1000 nM,10 nM,2000 nM,10 nM,398 nM,
"Cc1nc(C)c(-c2ccnc(Nc3cccc(S(=O)(=O)NCCO)c3)n2)s1 [Compound 78, 3-[4-(2,4-Dimethyl-thiazol-5-yl)-pyrimidin-2-ylamino]-N-(2-hydroxy-ethyl)-benzenesulfonamide]",631 nM,1000 nM,2000 nM,501 nM,2000 nM,1260 nM,316 nM,158 nM,
